Article PMC8342434, “Solubility of vitamin A in supercritical CO2: experimental study and thermodynamic modeling” (Scientific Reports, 2021)
Converted amounts (≈) assume the structure as drawn.

Assay: Equilibrium solubility of vitamin A in supercritical CO2 (static cell, UV-VIS)
Assay type: physicochemical
Procedure: Figure 1 indicates the system used for measuring the equilibrium solubility. […] Consequently, the gas was liquefied through dropping the temperature to − 20 °C so that it was prepared for pumping function by means of pressure controlling instruments (TEBCO, Iran) with an uncertainty of ± 0.1 MPa.
After CO2 pumped into the inlet solvent stream, the methanol tank (as a co-solvent in this section) and modulator valve controlled the solvent concentration. The inlet solvent concentration should be regulated. Thus, it is an adjustable factor as function of solute content based on simultaneous data from experimental setup. The pressure of the circuit was taken into the collection container through altering amount of modulator on the injection tap. This includes a certain volume of solvent (CO2 and methanol). Providing the thermal equilibrium condition with the inner part of the oven in shorter time, this equilibrium spiral pipe can be utilized for efficient mixing of CO2 and modulators. The cell was put inside carefully (FG Model, BF400E, Iran) to keep the operating temperature (with ± 0.5 K).
Roughly before the start of the extraction, 500 mg of powder Retinol were put into the static cell with the volume of 10 mL and due to the pressure drop, downward flowrate (in line with weight force of the materials) was used. Eluding physical entrainment of the unextracted Vitamin A (Rich Retinol), the tops of the pressurized equilibrium cell were connected by means of the stainless-steel disks before SC-CO2 was distributed into the cell, its pressure was enhanced up to the anticipated pressure before it is moved through the equilibrium cell at operational conditions. In the present research, 60 min was estimated to achieve the state of equilibrium (in the cell).
In fact, the final sample (in the standard state) in two phases of gas (carbon dioxide) and liquid phase (solution containing methanol and vitamin A) It was stored in accumulation glass and entered the spectrophotometer. Finally, the solvent was used to clean the circuit.
As solubility values of Vitamin A were obtained in various conditions, they were noted by absorbency mensuration’s at λmax using a model 2100 UNICO UV–VIS spectrophotometer with 1000 nm Wavelength. The equilibrium mole fraction yA and equilibrium solubility, S(g/L) in SC-CO2 over the ranges of temperature and pressure obtained from below equation[21]:1 yA=nA/nA+nC where2 nA=CAg/L×VAL/MAg/mol 3 nC=VlL×ρg/L/MCg/mol where nA and nC are sample moles of vitamin A and solvent, CA is the concentration of vitamin A g/L in the accumulation glass calculated by the curve of calibration. The volumes of the accumulation vial are denoted by VAL and VlL is the sampling circuit. Furthermore, MA and MC are the molecular weights of Vitamin A and CO2, respectively. By combining the aforementioned, the subsequent relation is achieved (Eq. (4)).4 yA=CAg/L×VSL×MCg/mol/CAg/L×VAL×MCg/mol+VlL×ρg/L×MAg/mol
In order to obtain the g/L of Vitamin A in SC-CO2 […] was used[21].5 Sg/L=CAg/L×VAL/VlL

Mole fraction (SC-CO2, 303 K, 90 bar): 2.18e-05
Mole fraction (SC-CO2, 303 K, 115 bar): 2.92e-05
Mole fraction (SC-CO2, 303 K, 130 bar): 3.58e-05
Mole fraction (SC-CO2, 303 K, 140 bar): 4.12e-05
Mole fraction (SC-CO2, 303 K, 155 bar): 5.29e-05
Mole fraction (SC-CO2, 303 K, 175 bar): 6.01e-05
Mole fraction (SC-CO2, 303 K, 185 bar): 6.25e-05
Mole fraction (SC-CO2, 303 K, 195 bar): 7.21e-05
Mole fraction (SC-CO2, 303 K, 220 bar): 7.96e-05
Mole fraction (SC-CO2, 303 K, 230 bar): 8.19e-05
Mole fraction (SC-CO2, 303 K, 245 bar): 8.32e-05
Mole fraction (SC-CO2, 313 K, 100 bar): 1.68e-05
Mole fraction (SC-CO2, 313 K, 120 bar): 3.62e-05
Mole fraction (SC-CO2, 313 K, 130 bar): 5.41e-05
Mole fraction (SC-CO2, 313 K, 140 bar): 5.25e-05
Mole fraction (SC-CO2, 313 K, 155 bar): 6.63e-05
Mole fraction (SC-CO2, 313 K, 170 bar): 8.13e-05
Mole fraction (SC-CO2, 313 K, 200 bar): 0.000125
Mole fraction (SC-CO2, 313 K, 235 bar): 0.000138
Mole fraction (SC-CO2, 313 K, 245 bar): 0.000149
Mole fraction (SC-CO2, 323 K, 110 bar): 2.68e-05
Mole fraction (SC-CO2, 323 K, 135 bar): 5.24e-05
Mole fraction (SC-CO2, 323 K, 180 bar): 0.00014
Mole fraction (SC-CO2, 323 K, 195 bar): 0.000148
Mole fraction (SC-CO2, 323 K, 205 bar): 0.00016
Mole fraction (SC-CO2, 323 K, 235 bar): 0.000196
cross-over pressure (SC-CO2, isotherms at 303, 313 and 323 K (Fig. 3)): 110 bar
solubility of fat-soluble vitamin A in SC-CO2 (SC-CO2, under certain conditions): ~0.7 g/kg
solubility thermodynamic at 60 min (supercritical CO2 in a 10 mL static equilibrium cell, organic solvent or mixture, thermodynamic from solid, SC-CO2, 303–323 K, 90–235 bar, minimum at 303 K, 90 bar, maximum at 323 K, 235 bar, read-out: equilibrium solubility S of Vitamin A in SC-CO2, span over all conditions): 96 to 1040 µg/mL (≈ 335 to 3620 µM)
SMILES: CC1=C(/C=C/C(C)=C/C=C/C(C)=C/CO)C(C)(C)CCC1 [vitamin A, Retinol]
